This note sets out measurements from patent publication US20080292619A1, “Pharmaceutical Composition Containing Meltrin Antagonist” (MOCHIDA PHARMACEUTICAL CO., LTD., priority 2004, published 2008).

In the oligonucleotide strings, read from the 5' end, every base follows the letter of its sugar. An asterisk marks phosphorothioate; unmarked linkages are phosphodiester. Other units and linkages are bracketed, terminal groups are in braces. A string of capitals states the bases alone. d = 2'-deoxy (DNA)

The series concerns human meltrin α RNA. The series is described as follows: Suppression of human meltrin α expression by antisense compound in RD cell (real time PCR). In kind it is cell-based. The conditions noted are these: RD cell, corrected by GAPDH. The method, boiled down:
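RD cells transfected with heat-denatured antisense oligodeoxynucleotide plus Lipofectin in Opti-MEM for 4 h at 37° C, then cultured 18 h. Meltrin α RNA quantified by TaqMan RT-PCR against plasmid standard curve, GAPDH-corrected; suppression vs untreated cells, rated +/++/+++ for ≥30/50/70%.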
In general terms: In qPCR the cycle at which signal appears reflects the starting amount.

“H149: caggtctgaggggtgccagg (dC*dA*dG*dG*dT*dC*dT*dG*dA*dG*dG*dG*dG*dT*dG*dC*dC*dA*dG*dG; antisense)”: the “suppression rate of expression, 50 nM” value was “+ (“+” when the suppression rate was at least 30%)” and the “suppression rate of expression, 200 nM” value is “+++ (“+++” when the suppression rate was at least 70%)”.
As to “H093: gtccacatcctgacatgagt (dG*dT*dC*dC*dA*dC*dA*dT*dC*dC*dT*dG*dA*dC*dA*dT*dG*dA*dG*dT; antisense)”, the “suppression rate of expression, 200 nM” value is “+ (“+” when the suppression rate was at least 30%)”.
Same read-out and setting: as for “H023: ggtccccactccgaacagag (GGTCCCCACTCCGAACAGAG; antisense; DNA, all phosphorothioate, methylation of C not given here)”, the entry is “+ (“+” when the suppression rate was at least 30%)”; as for “H153: ctgttgaaaaaaggtgtcgg (dC*dT*dG*dT*dT*dG*dA*dA*dA*dA*dA*dA*dG*dG*dT*dG*dT*dC*dG*dG; antisense)”, “++ (“++” when the suppression rate was at least 50%)”.
Consider “H139 + 16: gctaggtgcacgtggggccc (GCTAGGTGCACGTGGGGCCC; antisense; DNA, all phosphorothioate, methylation of C not given here)”, for which the “suppression rate of expression, 50 nM” value was “++ (“++” when the suppression rate was at least 50%)”.
For “H110: caagccctgggtccggcatg (dC*dA*dA*dG*dC*dC*dC*dT*dG*dG*dG*dT*dC*dC*dG*dG*dC*dA*dT*dG; antisense)”, the “suppression rate of expression, 50 nM” value is “+ (“+” when the suppression rate was at least 30%)” and the “suppression rate of expression, 200 nM” value is listed as “++ (“++” when the suppression rate was at least 50%)”.
Turning to “H117: gcagtggcagttcttcctgt (GCAGTGGCAGTTCTTCCTGT; antisense; DNA, all phosphorothioate, methylation of C not given here)”, the “suppression rate of expression, 200 nM” value was “+ (“+” when the suppression rate was at least 30%)”.
For “H143 + 10: tgaggggggtttggcttaca (TGAGGGGGGTTTGGCTTACA; antisense; DNA, all phosphorothioate, methylation of C not given here)”, the “suppression rate of expression, 50 nM” value is given as “+ (“+” when the suppression rate was at least 30%)”.
The same measure, in the same setting: as for “H144 + 17: gccagaggatctgcaggcag (GCCAGAGGATCTGCAGGCAG; antisense; DNA, all phosphorothioate, methylation of C not given here)”, the entry is “+++ (“+++” when the suppression rate was at least 70%)”.
For “H061: agctgcgcattgtcatggga (dA*dG*dC*dT*dG*dC*dG*dC*dA*dT*dT*dG*dT*dC*dA*dT*dG*dG*dG*dA; antisense)”, the “suppression rate of expression, 200 nM” value is reported as “+ (“+” when the suppression rate was at least 30%)”.
In the case of “H132 + 18: tgggtaggaatctggcggct (TGGGTAGGAATCTGGCGGCT; antisense; DNA, all phosphorothioate, methylation of C not given here)”, the “suppression rate of expression, 50 nM” value was “+ (“+” when the suppression rate was at least 30%)”.
On the same count and under the same terms, as for “H144 + 6: tgcaggcagaggcttctgag (TGCAGGCAGAGGCTTCTGAG; antisense; DNA, all phosphorothioate, methylation of C not given here)”, the entry is “++ (“++” when the suppression rate was at least 50%)”.
With “H016: gggcgcgctgccatcgtcgc (GGGCGCGCTGCCATCGTCGC; antisense; DNA, all phosphorothioate, methylation of C not given here)”, the “suppression rate of expression, 50 nM” value was “+ (“+” when the suppression rate was at least 30%)” and the “suppression rate of expression, 200 nM” value is listed as “++ (“++” when the suppression rate was at least 50%)”.
“H026: gtcgaatattcagcacttct (GTCGAATATTCAGCACTTCT; antisense; DNA, all phosphorothioate, methylation of C not given here)”: the “suppression rate of expression, 200 nM” value is on record as “+ (“+” when the suppression rate was at least 30%)”.
Same read-out and setting: as for “H105: ggcattggtaccaatgactg (dG*dG*dC*dA*dT*dT*dG*dG*dT*dA*dC*dC*dA*dA*dT*dG*dA*dC*dT*dG; antisense)”, the entry is “+ (“+” when the suppression rate was at least 30%)”; as for “H043: gtgttgtgatgtgatccaca (GTGTTGTGATGTGATCCACA; antisense; DNA, all phosphorothioate, methylation of C not given here)”, “+ (“+” when the suppression rate was at least 30%)”.
Still for that read-out and setting: next, “H240: acagatgcatgctatacgag (DNA dA*dC*dA*dG*dA*dT*dG*dC*dA*dT*dG*dC*dT*dA*dT*dA*dC*dG*dA*dG; antisense)”: “++ (“++” when the suppression rate was at least 50%)”.
On to “H137 + 1: ggctgagggacattcaggcc (GGCTGAGGGACATTCAGGCC; antisense; DNA, all phosphorothioate, methylation of C not given here)”, for which the “suppression rate of expression, 50 nM” value was “++ (“++” when the suppression rate was at least 50%)”.
The same measure, in the same setting: as for “H144 + 8: tctgcaggcagaggcttctg (TCTGCAGGCAGAGGCTTCTG; antisense; DNA, all phosphorothioate, methylation of C not given here)”, the entry is “+ (“+” when the suppression rate was at least 30%)”.
For “H229: aaagaaggctttctcataaa (dA*dA*dA*dG*dA*dA*dG*dG*dC*dT*dT*dT*dC*dT*dC*dA*dT*dA*dA*dA; antisense)”, the “suppression rate of expression, 200 nM” value is “+ (“+” when the suppression rate was at least 30%)”.
Consider “H230: taggaaaactgttgacccca (dT*dA*dG*dG*dA*dA*dA*dA*dC*dT*dG*dT*dT*dG*dA*dC*dC*dC*dC*dA; antisense)”, for which the “suppression rate of expression, 200 nM” value is “++ (“++” when the suppression rate was at least 50%)”.
Same read-out and setting: next, “H019: ggcgcgagcagagcaccggc (GGCGCGAGCAGAGCACCGGC; antisense; DNA, all phosphorothioate, methylation of C not given here)”: “++ (“++” when the suppression rate was at least 50%)”.
Same read-out and setting: next, “H156: taaaagttggtacaaaaaac (dT*dA*dA*dA*dA*dG*dT*dT*dG*dG*dT*dA*dC*dA*dA*dA*dA*dA*dA*dC; antisense)”: “+ (“+” when the suppression rate was at least 30%)”; “H251: aggaagggctaacatgccag (DNA dA*dG*dG*dA*dA*dG*dG*dG*dC*dT*dA*dA*dC*dA*dT*dG*dC*dC*dA*dG; antisense)”: “+++ (“+++” when the suppression rate was at least 70%)”.
Consider “H147: tcctggggtcctggccaagg (dT*dC*dC*dT*dG*dG*dG*dG*dT*dC*dC*dT*dG*dG*dC*dC*dA*dA*dG*dG; antisense)”, for which the “suppression rate of expression, 50 nM” value was “++ (“++” when the suppression rate was at least 50%)” and the “suppression rate of expression, 200 nM” value is given as “+++ (“+++” when the suppression rate was at least 70%)”.
In the case of “H014: ctcgggcccggcggcgagcg (CTCGGGCCCGGCGGCGAGCG; antisense; DNA, all phosphorothioate, methylation of C not given here)”, the “suppression rate of expression, 200 nM” value is “+++ (“+++” when the suppression rate was at least 70%)”.
For “H136 + 15: gggacattcaggccgttgag (GGGACATTCAGGCCGTTGAG; antisense; DNA, all phosphorothioate, methylation of C not given here)”, the “suppression rate of expression, 50 nM” value is “+ (“+” when the suppression rate was at least 30%)”.
Consider “H063: catgccgatggtggtccctt (dC*dA*dT*dG*dC*dC*dG*dA*dT*dG*dG*dT*dG*dG*dT*dC*dC*dC*dT*dT; antisense)”, for which the “suppression rate of expression, 200 nM” value is recorded as “++ (“++” when the suppression rate was at least 50%)”.
Take “H045: agagggtggtggaaacacat (AGAGGGTGGTGGAAACACAT; antisense; DNA, all phosphorothioate, methylation of C not given here)”: the “suppression rate of expression, 200 nM” value is reported as “++ (“++” when the suppression rate was at least 50%)”.
Same read-out and setting: next, “H049: cggttgtctgccacgatcac (dC*dG*dG*dT*dT*dG*dT*dC*dT*dG*dC*dC*dA*dC*dG*dA*dT*dC*dA*dC; antisense)”: “+ (“+” when the suppression rate was at least 30%)”.
On the same count and under the same terms, as for “H234: acaccgggaaagtgaaatgc (DNA dA*dC*dA*dC*dC*dG*dG*dG*dA*dA*dA*dG*dT*dG*dA*dA*dA*dT*dG*dC; antisense)”, the entry is “++ (“++” when the suppression rate was at least 50%)”; as for “H065: ccccagactggtctgccgtg (dC*dC*dC*dC*dA*dG*dA*dC*dT*dG*dG*dT*dC*dT*dG*dC*dC*dG*dT*dG; antisense)”, “++ (“++” when the suppression rate was at least 50%)”.
With “H010: cctcggcgagtcagctccgg (CCTCGGCGAGTCAGCTCCGG; antisense; DNA, all phosphorothioate, methylation of C not given here)”, the “suppression rate of expression, 50 nM” value is reported as “++ (“++” when the suppression rate was at least 50%)” and the “suppression rate of expression, 200 nM” value is “++ (“++” when the suppression rate was at least 50%)”.
“H094: atgccattgtagcagtagcc (dA*dT*dG*dC*dC*dA*dT*dT*dG*dT*dA*dG*dC*dA*dG*dT*dA*dG*dC*dC; antisense)”: the “suppression rate of expression, 200 nM” value is “+ (“+” when the suppression rate was at least 30%)”.
Turning to “H132 + 17: gggtaggaatctggcggctt (GGGTAGGAATCTGGCGGCTT; antisense; DNA, all phosphorothioate, methylation of C not given here)”, the “suppression rate of expression, 50 nM” value is “++ (“++” when the suppression rate was at least 50%)”.
Turning to “H104: gccggctggcacctccttga (dG*dC*dC*dG*dG*dC*dT*dG*dG*dC*dA*dC*dC*dT*dC*dC*dT*dT*dG*dA; antisense)”, the “suppression rate of expression, 200 nM” value is “+++ (“+++” when the suppression rate was at least 70%)”.
